Tests used:
ID-8 tumor xenograft = assay: ID8 syngeneic ovarian tumor model, tumor growth and lung metastasis; format: in vivo, C57BL/6 mice
Protocol: (§1) These promising results led us to test SU093 and SU056 in vivo. C57BL/6 mice were implanted with 2×10^6 firefly luciferase (luc+)-expressing ID-8 syngeneic ovarian cancer cells subcutaneously. Once the tumors reached 100 mm^3 in size, we began daily intraperitoneal treatment with SU093 and SU056 at 20 mg/kg (vehicle control 30% PEG-300 in saline). Tumor growth was monitored via bioluminescence imaging (IVIS).
Due to prior observation of a significant reduction in the migratory ability of OC cells treated with the two drugs (FIG. 1H), we also measured the effect of drug treatment on ovarian cancer metastases. At the end of above experiment, lungs were fixed and metastatic foci were counted under the dissecting microscope followed by H&E staining.
(§2) In vivo xenograft model and drug efficacy study: All animal experiments were reviewed and approved by the Animal Care and Use Committee of Stanford University, CA, USA. Luciferase tagged ID8 (2×10^6) or OVCAR8 (5×10^6) cells were implanted into the right flank of 6-7-week-old female C57BL/6 mice and NOD/SCID mice, respectively. Respective treatment began after tumors grew to 100-200 mm^3 diameters. The ID8 syngeneic mice model was treated with a vehicle (30% PEG-300 in saline), 20 mg/kg SU093, and 20 mg/kg SU056 intraperitoneally (IP) daily for 42 days. At the end of treatment, blood was collected from each mouse and analyzed for liver toxicity parameters, including Alanine Aminotransferase (ALT), Aspartate Aminotransferase (AST), and Alkaline Phosphatase (ALKP). OVCAR8 xenograft mice model was treated with vehicle (30% PEG-300 in saline), 5 mg/kg paclitaxel (once a week), 10 mg/kg SU056 (daily), a combination of paclitaxel (5 mg/kg, once a week) and SU056 (10 mg/kg, daily) for 4 weeks. Mice from both studies were euthanized, the tumor and different organs were collected and fixed in neutral buffered formalin and further processed for immunohistochemical analysis.
FIGS. 2A-2F. SU093 and SU056 inhibit mice ovarian ID-8 tumor xenograft growth in C57BL/6 mice. Mice were subcutaneously injected with ID-8 cells mixed with Matrigel in 1:1 ratio and the drug treatment started when tumors reached 100 mm^3. […] FIG. 2B) Tumor volume/mouse as a function of time. […] FIG. 2C) Tumor weight/mouse at the end of the study. […] FIG. 2D) Liver toxicity parameters at the end of 42 days showing no significant difference between control, SU093, and SU056. FIGS. 2E-2F) Lung metastasis assay. FIG. 2E) H&E staining of the lung (red arrow indicates the metastasis from ID8 xenograft). Scale bar, 250 μm. FIG. 2F) No. of lung metastatic nodules.

[1] = Liver toxicity parameters (ALT, AST, ALKP) in ID8 study; format: in vivo, C57BL/6 mice; settings: 20 mg/kg daily IP, 42 days
Protocol: as §1
as §2, with “OVCAR8 xenograft mice model was treated with vehicle (30% PEG-300 in saline), 5 mg/kg paclitaxel (once a week), 10 mg/kg SU056 (daily), a combination of paclitaxel (5 mg/kg, once a week) and SU056 (10 mg/kg, daily) for 4 weeks. Mice from both studies were euthanized, the tumor and different organs were collected and fixed in neutral buffered formalin and further processed for immunohistochemical analysis.” left out

A498 = assay: NCI-60 cell line panel; format: cell-based; settings: Homo sapiens, 48 hours
From the text: (§3) FIG. 17: Assay of SU056 in NCI-60 cell line panel.

A549/ATCC = assay: NCI-60 cell line panel; format: cell-based; settings: Homo sapiens, 48 hours
From the text: as §3

ACHN = assay: NCI-60 cell line panel; format: cell-based; settings: Homo sapiens, 48 hours
From the text: as §3

CAKI-1 = assay: NCI-60 cell line panel; format: cell-based; settings: Homo sapiens, 48 hours
From the text: as §3

CCRF-CEM = assay: NCI-60 cell line panel; format: cell-based; settings: Homo sapiens, 48 hours
From the text: as §3

DU-145 = assay: NCI-60 cell line panel; format: cell-based; settings: Homo sapiens, 48 hours
From the text: as §3

HCC-2998 = assay: NCI-60 cell line panel; format: cell-based; settings: Homo sapiens, 48 hours
From the text: as §3

HL-60(TB) = assay: NCI-60 cell line panel; format: cell-based; settings: Homo sapiens, 48 hours
From the text: as §3

HOP-62 = assay: NCI-60 cell line panel; format: cell-based; settings: Homo sapiens, 48 hours
From the text: as §3

HOP-92 = assay: NCI-60 cell line panel; format: cell-based; settings: Homo sapiens, 48 hours
From the text: as §3

IGROV1 = assay: NCI-60 cell line panel; format: cell-based; settings: Homo sapiens, IGROV-1, 48 hours
From the text: as §3

K-562 = assay: NCI-60 cell line panel; format: cell-based; settings: Homo sapiens, K562, 48 hours
From the text: as §3

LOX IMVI = assay: NCI-60 cell line panel; format: cell-based; settings: Homo sapiens, 48 hours
From the text: as §3

MDA-MB-231/ATCC = assay: NCI-60 cell line panel; format: cell-based; settings: Homo sapiens, 48 hours
From the text: as §3

NCI-H226 = assay: NCI-60 cell line panel; format: cell-based; settings: Homo sapiens, 48 hours
From the text: as §3

NCI-H322M = assay: NCI-60 cell line panel; format: cell-based; settings: Homo sapiens, 48 hours
From the text: as §3

NCI-H460 = assay: NCI-60 cell line panel; format: cell-based; settings: Homo sapiens, 48 hours
From the text: as §3

NCI-H522 = assay: NCI-60 cell line panel; format: cell-based; settings: Homo sapiens, 48 hours
From the text: as §3

OVCAR-5 = assay: NCI-60 cell line panel; format: cell-based; settings: Homo sapiens, 48 hours
From the text: as §3

RPMI-8226 = assay: NCI-60 cell line panel; format: cell-based; settings: Homo sapiens, 48 hours
From the text: as §3

SF-295 = assay: NCI-60 cell line panel; format: cell-based; settings: Homo sapiens, 48 hours
From the text: as §3

SF-539 = assay: NCI-60 cell line panel; format: cell-based; settings: Homo sapiens, 48 hours
From the text: as §3

SK-MEL-2 = assay: NCI-60 cell line panel; format: cell-based; settings: Homo sapiens, 48 hours
From the text: as §3

SK-MEL-5 = assay: NCI-60 cell line panel; format: cell-based; settings: Homo sapiens, 48 hours
From the text: as §3

SK-OV-3 = assay: NCI-60 cell line panel; format: cell-based; settings: Homo sapiens, 48 hours
From the text: as §3

SN12C = assay: NCI-60 cell line panel; format: cell-based; settings: Homo sapiens, 48 hours
From the text: as §3

SNB-75 = assay: NCI-60 cell line panel; format: cell-based; settings: Homo sapiens, 48 hours
From the text: as §3

U251 = assay: NCI-60 cell line panel; format: cell-based; settings: Homo sapiens, U-251, 48 hours
From the text: as §3

UACC-62 = assay: NCI-60 cell line panel; format: cell-based; settings: Homo sapiens, 48 hours
From the text: as §3

UO-31 = assay: NCI-60 cell line panel; format: cell-based; settings: Homo sapiens, 48 hours
From the text: as §3

O=C1OCC2=C1C(c1cccc(F)c1)c1cc3c(cc1N2CCO)OCO3 (stereo not shown) [SU056, 9-(3-fluorophenyl)-5-(2-hydroxyethyl)-6,9-dihydro-[1,3]dioxolo[4,5-g]furo[3,4-b]quinolin-8(5H)-one]
reduction in lung metastases (ID-8 tumor xenograft; 20 mg/kg daily IP, 42 days, histological scoring): 3 fold
reduction in tumor weight (ID-8 tumor xenograft; 20 mg/kg daily IP, at 42 days): 2 fold
tumor progression vs vehicle control (ID-8 tumor xenograft; 20 mg/kg daily intraperitoneal, bioluminescence imaging): significantly delay the tumor progression
impact on blood chemistry indicators (AST, ALT, alkaline phosphatase) [1]: no significant impact
IC50 (A498): 1.11 µM
IC50 (A549/ATCC): 8.74 µM
IC50 (ACHN): 3.03 µM
IC50 (CAKI-1): 1.24 µM
IC50 (CCRF-CEM): 2.37 µM
IC50 (DU-145): 2.71 µM
IC50 (HCC-2998): 7.06 µM
IC50 (HL-60(TB)): 1.26 µM
IC50 (HOP-62): 2.19 µM
IC50 (HOP-92): 3.1 µM
IC50 (IGROV1): 4.19 µM
IC50 (K-562): 0.353 µM
IC50 (LOX IMVI): 2.35 µM
IC50 (MDA-MB-231/ATCC): 3.09 µM
IC50 (NCI-H226): 50 µM
IC50 (NCI-H322M): 4.01 µM
IC50 (NCI-H460): 2.08 µM
IC50 (NCI-H522): 2.59 µM
IC50 (OVCAR-5): 4.33 µM
IC50 (RPMI-8226): 2.28 µM
IC50 (SF-295): 1.2 µM
IC50 (SF-539): 1.13 µM
IC50 (SK-MEL-2): 2.46 µM
IC50 (SK-MEL-5): 1.26 µM
IC50 (SK-OV-3): 1.73 µM
IC50 (SN12C): 3.05 µM
IC50 (SNB-75): 0.82 µM
IC50 (U251): 2.5 µM
IC50 (UACC-62): 2.25 µM
IC50 (UO-31): 2.88 µM
